In publication PMC3169616, “Unique Residues Involved in Activation of the Multitasking Protease/Chaperone HtrA from Chlamydia trachomatis” (PLoS ONE, 2011):
“Also recorded” adds a separate entry of the source.

Molecular target: T1, CtHtrA (Chlamydia trachomatis serovar D, UniProt P18584)
T1 construct: His-tag; made in house; host or cells: E. coli BL21 (DE3), plasmid pETHtrA
T1 sequence (P18584 17-497): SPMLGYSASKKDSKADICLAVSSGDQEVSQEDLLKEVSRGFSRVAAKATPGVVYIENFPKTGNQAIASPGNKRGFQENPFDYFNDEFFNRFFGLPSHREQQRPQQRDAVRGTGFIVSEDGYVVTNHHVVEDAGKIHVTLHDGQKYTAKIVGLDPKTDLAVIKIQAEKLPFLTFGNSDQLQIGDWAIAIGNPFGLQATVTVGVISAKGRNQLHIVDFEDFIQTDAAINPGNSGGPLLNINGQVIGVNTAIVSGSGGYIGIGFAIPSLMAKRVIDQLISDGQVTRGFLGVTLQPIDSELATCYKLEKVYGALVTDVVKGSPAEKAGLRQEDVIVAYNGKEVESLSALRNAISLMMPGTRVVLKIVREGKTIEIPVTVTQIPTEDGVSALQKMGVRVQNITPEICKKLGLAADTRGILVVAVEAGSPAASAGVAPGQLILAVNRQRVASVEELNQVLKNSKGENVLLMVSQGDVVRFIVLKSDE
Test: Activation of CtHtrA cleavage of Bcas1 substrate by added activator
Assay type: biochemical
Conditions: substrate Bcas1 (MCA-ENLHLPLPIIF-DNP), fluorimetric, 37°C
Protocol: To determine if the addition of a second peptide to the protease assays could activate or increase CtHtrA proteolysis, two activator peptides were tested in the CtHtrA cleavage of the model ß-casein peptide substrate Bcas1. The first was based on the ß-casein C-terminal sequence (Act1: NH2-VLGPVRGPFPIIV-OH) and the second on insulin b chain C-terminal sequence (Act2: NH2-CGELGFFYTP-OH).
Finally, in order to determine if the 24-mer (highest amount with MOMP protein, or Act1), or 12-mer, or both, corresponds to enhanced protease activity, the incubations of CtHtrA and these potential in vivo activators were used for protease assays with the Bcas1 substrate (Fig. 6). […] The presence of the majority of CtHtrA as higher order oligomers correlated with an increased rate of proteolysis for CtHtrA, particularly when these oligomers were predominately 24-mers.
The purified recombinant protein was examined by Coomassie stained polyacrylamide gels and activity was checked using ß-casein cleavage assays prior to use in peptide assays. Briefly, this involved incubating 2 µg of the protease with 10 µg of ß-casein in 50 mM Tris pH 7.0, 20 mM MgCl2 for 2 h prior to examining the assays by SDS PAGE (ß-casein and protease only controls were always conducted). Protease assays using peptides were conducted using custom synthesised peptides (Mimotopes). […] Protease assays using pNA labelled peptides were conducted using the xMARK Microplate spectrophotometer (Bio-Rad) at 405 nm, incubated at 37°C, with a reading taken every 10 s for 30 min. The maximum slope over a minimum of 8 readings was used for the data analysis. […] The assays were excited at 340 nm and emission was detected at 405 nm with a gain of 1000, the assays were monitored every 20 s or at the minimum cycle time for up to 40 min. […] The assay results shown for the fluorescent compounds have been normalised for the amount of fluorescent emission detected using a standard curve of known concentrations of the MCA fluorophore under the identical assay conditions. […]

## H-VLGPVRGPFPIIV-OH [Act1]
  effect of activator on rate of CtHtrA proteolysis of Bcas1: greater ability of the two activators to increase the proteolysis rate; also recorded: increased proteolysis rate
